Data from ChEMBL document CHEMBL1152441, “Discovery of [18F]N-(2-(diethylamino)ethyl)-6-fluoronicotinamide: a melanoma positron emission tomography imaging radiotracer with high tumor to body contrast ratio and rapid renal clearance” (J Med Chem, 2009).

Tests used:
[1] = Biodistribution in eye of mouse B16F0 cells implanted C57BL/6J mouse assessed per gram of tissue at 0.4 to 5.5 MBq, iv after 0.25 hrs by gamma counter; format: ADME, organism-based; conditions: in vivo
[2] = Biodistribution in eye of mouse B16F0 cells implanted C57BL/6J mouse assessed per gram of tissue at 0.4 to 5.5 MBq, iv after 1 hr by gamma counter; format: ADME, organism-based; conditions: in vivo
[3] = tested on: Bone; test: Biodistribution in bone of mouse B16F0 cells implanted C57BL/6J mouse assessed per gram of tissue at 0.4 to 5.5 MBq, iv after 3 hrs by gamma counter; format: ADME, organism-based, Bone element; conditions: in vivo
[4] = Biodistribution in tumor of mouse B16F0 cells implanted C57BL/6J mouse assessed per gram of tissue at 0.4 to 5.5 MBq, iv after 1 hr by gamma counter; format: ADME, organism-based, Neoplasm; conditions: in vivo
[5] = Biodistribution in eye of mouse B16F0 cells implanted C57BL/6J mouse assessed per gram of tissue at 0.4 to 5.5 MBq, iv after 3 hrs by gamma counter; format: ADME, organism-based; conditions: in vivo
[6] = tested on: Stomach; test: Biodistribution in stomach of mouse B16F0 cells implanted C57BL/6J mouse assessed per gram of tissue at 0.4 to 5.5 MBq, iv after 1 hr by gamma counter; format: ADME, organism-based; conditions: in vivo
[7] = Biodistribution in tumor of mouse B16F0 cells implanted C57BL/6J mouse assessed per gram of tissue at 0.4 to 5.5 MBq, iv after 3 hrs by gamma counter; format: ADME, organism-based, Neoplasm; conditions: in vivo
[8] = tested on: Lung; test: Biodistribution in lung of mouse B16F0 cells implanted C57BL/6J mouse assessed per gram of tissue at 0.4 to 5.5 MBq, iv after 6 hrs by gamma counter; format: ADME, organism-based; conditions: in vivo
[9] = tested on: Bone; test: Biodistribution in bone of mouse B16F0 cells implanted C57BL/6J mouse assessed per gram of tissue at 0.4 to 5.5 MBq, iv after 1 hr by gamma counter; format: ADME, organism-based, Bone element; conditions: in vivo
[10] = tested on: Intestine; test: Biodistribution in intestine of mouse B16F0 cells implanted C57BL/6J mouse assessed per gram of tissue at 0.4 to 5.5 MBq, iv after 1 hr by gamma counter; format: ADME, organism-based; conditions: in vivo
[11] = tested on: Thyroid gland; test: Biodistribution in thyroid of mouse B16F0 cells implanted C57BL/6J mouse assessed per gram of tissue at 0.4 to 5.5 MBq, iv after 3 hrs by gamma counter; format: ADME, organism-based; conditions: in vivo
[12] = tested on: Thyroid gland; test: Biodistribution in thyroid of mouse B16F0 cells implanted C57BL/6J mouse assessed per gram of tissue at 0.4 to 5.5 MBq, iv after 0.25 hrs by gamma counter; format: ADME, organism-based; conditions: in vivo
[13] = tested on: Stomach; test: Biodistribution in stomach of mouse B16F0 cells implanted C57BL/6J mouse assessed per gram of tissue at 0.4 to 5.5 MBq, iv after 6 hrs by gamma counter; format: ADME, organism-based; conditions: in vivo
[14] = tested on: Stomach; test: Biodistribution in stomach of mouse B16F0 cells implanted C57BL/6J mouse assessed per gram of tissue at 0.4 to 5.5 MBq, iv after 3 hrs by gamma counter; format: ADME, organism-based; conditions: in vivo
[15] = Biodistribution in tumor of mouse B16F0 cells implanted C57BL/6J mouse assessed per gram of tissue at 0.4 to 5.5 MBq, iv after 6 hrs by gamma counter; format: ADME, organism-based, Neoplasm; conditions: in vivo
[16] = tested on: Intestine; test: Biodistribution in intestine of mouse B16F0 cells implanted C57BL/6J mouse assessed per gram of tissue at 0.4 to 5.5 MBq, iv after 0.25 hrs by gamma counter; format: ADME, organism-based; conditions: in vivo
[17] = tested on: Bone; test: Biodistribution in bone of mouse B16F0 cells implanted C57BL/6J mouse assessed per gram of tissue at 0.4 to 5.5 MBq, iv after 6 hrs by gamma counter; format: ADME, organism-based, Bone element; conditions: in vivo
[18] = tested on: Intestine; test: Biodistribution in intestine of mouse B16F0 cells implanted C57BL/6J mouse assessed per gram of tissue at 0.4 to 5.5 MBq, iv after 3 hrs by gamma counter; format: ADME, organism-based; conditions: in vivo
[19] = Lipophilicity, log P at pH 7.5; format: physicochemical; conditions: buffer
[20] = tested on: Spleen; test: Biodistribution in spleen of mouse B16F0 cells implanted C57BL/6J mouse assessed per gram of tissue at 0.4 to 5.5 MBq, iv after 6 hrs by gamma counter; format: ADME, organism-based; conditions: in vivo
[21] = tested on: Lung; test: Biodistribution in lung of mouse B16F0 cells implanted C57BL/6J mouse assessed per gram of tissue at 0.4 to 5.5 MBq, iv after 1 hr by gamma counter; format: ADME, organism-based; conditions: in vivo
[22] = tested on: Spleen; test: Biodistribution in spleen of mouse B16F0 cells implanted C57BL/6J mouse assessed per gram of tissue at 0.4 to 5.5 MBq, iv after 0.25 hrs by gamma counter; format: ADME, organism-based; conditions: in vivo
[23] = tested on: Lung; test: Biodistribution in lung of mouse B16F0 cells implanted C57BL/6J mouse assessed per gram of tissue at 0.4 to 5.5 MBq, iv after 0.25 hrs by gamma counter; format: ADME, organism-based; conditions: in vivo
[24] = tested on: Spleen; test: Biodistribution in spleen of mouse B16F0 cells implanted C57BL/6J mouse assessed per gram of tissue at 0.4 to 5.5 MBq, iv after 1 hr by gamma counter; format: ADME, organism-based; conditions: in vivo
[25] = tested on: Bone; test: Biodistribution in bone of mouse B16F0 cells implanted C57BL/6J mouse assessed per gram of tissue at 0.4 to 5.5 MBq, iv after 0.25 hrs by gamma counter; format: ADME, organism-based, Bone element; conditions: in vivo
[26] = Biodistribution in eye of mouse B16F0 cells implanted C57BL/6J mouse assessed per gram of tissue at 0.4 to 5.5 MBq, iv after 6 hrs by gamma counter; format: ADME, organism-based; conditions: in vivo
[27] = Biodistribution in tumor of mouse B16F0 cells implanted C57BL/6J mouse assessed per gram of tissue at 0.4 to 5.5 MBq, iv after 0.25 hrs by gamma counter; format: ADME, organism-based, Neoplasm; conditions: in vivo
[28] = tested on: Spleen; test: Biodistribution in spleen of mouse B16F0 cells implanted C57BL/6J mouse assessed per gram of tissue at 0.4 to 5.5 MBq, iv after 3 hrs by gamma counter; format: ADME, organism-based; conditions: in vivo
[29] = tested on: Stomach; test: Biodistribution in stomach of mouse B16F0 cells implanted C57BL/6J mouse assessed per gram of tissue at 0.4 to 5.5 MBq, iv after 0.25 hrs by gamma counter; format: ADME, organism-based; conditions: in vivo
[30] = tested on: Lung; test: Biodistribution in lung of mouse B16F0 cells implanted C57BL/6J mouse assessed per gram of tissue at 0.4 to 5.5 MBq, iv after 3 hrs by gamma counter; format: ADME, organism-based; conditions: in vivo
[31] = tested on: Thyroid gland; test: Biodistribution in thyroid of mouse B16F0 cells implanted C57BL/6J mouse assessed per gram of tissue at 0.4 to 5.5 MBq, iv after 6 hrs by gamma counter; format: ADME, organism-based; conditions: in vivo
[32] = tested on: Intestine; test: Biodistribution in intestine of mouse B16F0 cells implanted C57BL/6J mouse assessed per gram of tissue at 0.4 to 5.5 MBq, iv after 6 hrs by gamma counter; format: ADME, organism-based; conditions: in vivo
[33] = tested on: Thyroid gland; test: Biodistribution in thyroid of mouse B16F0 cells implanted C57BL/6J mouse assessed per gram of tissue at 0.4 to 5.5 MBq, iv after 1 hr by gamma counter; format: ADME, organism-based; conditions: in vivo

| Drug uptake [1] | Drug uptake [2] | Drug uptake [3] | Drug uptake [4] | Drug uptake [5] | Drug uptake [6] | Drug uptake [7] | Drug uptake [8] | Drug uptake [9] | Drug uptake [10] | Drug uptake [11] | Drug uptake [12] | Drug uptake [13] | Drug uptake [14] | Drug uptake [15] | Drug uptake [16] | Drug uptake [17] | Drug uptake [18] | logD [19] | Drug uptake [20] | Structure (SMILES) | further results |
| --- | --- | --- | --- | --- | --- | --- | --- | --- | --- | --- | --- | --- | --- | --- | --- | --- | --- | --- | --- | --- | --- |
| 36.7% | 38% | 4.6% | 14.6% | 36.3% | 6.8% | 17.3% | 0.2% | 3.4% | 7.1% | 2.1% | 4.5% | 0.7% | 1.9% | 4.8% | 7.8% | 5.6% | 7.1% | 0.94 | 0.5% | CCN(CC)CCNC(=O)c1cccnc1[18F] | Drug uptake [21]: 1.5%; Drug uptake [22]: 11.8%; Drug uptake [23]: 5%; Drug uptake [24]: 9.2%; Drug uptake [25]: 4.8%; Drug uptake [26]: 27.4%; Drug uptake [27]: 10.6%; Drug uptake [28]: 2.5%; Drug uptake [29]: 14.7%; Drug uptake [30]: 0.35%; Drug uptake [31]: 3.2%; Drug uptake [32]: 3.6%; Drug uptake [33]: 2.2% |
| 11.3% | 12.7% | 1.4% | 4.8% | 14.3% | 3.3% | 5.3% | 2.2% | 2% | 5.8% | 2.9% | 10.2% | 1.8% | 2.4% | 5.3% | 8.2% | 1% | 4.2% | 1.52 | 4.1% | CCCCN(C)CCCCNC(=O)c1ccc([18F])nc1 | Drug uptake [21]: 4.5%; Drug uptake [22]: 11.2%; Drug uptake [23]: 12.1%; Drug uptake [24]: 7.4%; Drug uptake [25]: 3.89%; Drug uptake [26]: 15.8%; Drug uptake [27]: 4%; Drug uptake [28]: 5.3%; Drug uptake [29]: 8.5%; Drug uptake [30]: 3.1%; Drug uptake [31]: 2%; Drug uptake [32]: 3.1%; Drug uptake [33]: 5.4% |
